The record followed here is patent US8993585B2, “Cyclic amine substituted pyrimidinediamines as PKC inhibitors” (Rigel Pharmaceuticals, Inc., priority 2007, dated 2015).

A word on the IC50: it is the concentration at which inhibition is half-maximal.

The first experiment concerns Human primary T cells. As to the kind of experiment: IL-2 ELISA, Human Primary T Cell, Anti-CD3+CD28+ (Example 3). The conditions noted are these: Homo sapiens, T-cell, 24 h, anti-CD3+CD28 stimulation. The experiment is classed as cell-based. The gist of the method:
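Human primary T cells, 100,000 per well, were pre-incubated with compound in Yssel's medium for 1 h at 37 °C. The counter-assay used 0.5 ng/ml PMA with 0.1 uM ionomycin final.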
For orientation: In an ELISA, binding on a coated surface is turned into a signal by an enzyme label.
On to `COc1ccc(-c2csc(Nc3ncc(F)c(NC4CC(C)(C)N(C)C(C)(C)C4)n3)n2)cc1F` [II-137], for which half-maximal inhibition (IC50) was put at 460 nM.

For the compound `Cc1cc(NC2CC(C)(C)N(C)C(C)(C)C2)nc(Nc2ccc(N3CCN(S(C)(=O)=O)CC3)c(Cl)c2)n1` [IV-3], the midpoint of inhibition, the IC50, lay at 4390 nM.

As to `CN1C(C)(C)CC(Nc2nc(Nc3ccc4c(c3)n(C)c(=O)n4C)ncc2F)CC1(C)C` [II-56], the IC50 amounted to 968 nM.

In the case of `COc1cc(Nc2ncc(F)c(NC3CC(C)(C)NC(C)(C)C3)n2)cc(OCCN2CCOCC2)c1` [Compound I-432], half-maximal inhibition (IC50) was put at 1530 nM.

For `CN1C(C)(C)CC(Nc2nc(Nc3ccc4c(c3)OC(C)(C)C(=O)N4CCF)ncc2C#N)CC1(C)C` [II-79], the 50% inhibitory concentration (IC50) is 152 nM.

`COC(=O)CCN1C(C)(C)CC(Nc2nc(Nc3ccc(OC)c(OC)c3)ncc2F)CC1(C)C` [Compound I-291] gave an IC50 of 22300 nM.

The compound `Cc1ccc(Nc2ncc(F)c(N(Cc3ccc(-c4ccccc4C#N)cc3)C3CC(C)(C)N(C)C(C)(C)C3)n2)cc1C#N` [Compound I-326] came in with an IC50 of 3080 nM.

In the case of `CN1CCN(C(=O)C2COc3cc(Nc4ncc(F)c(NC5CC(C)(C)N(C)C(C)(C)C5)n4)ccc3O2)CC1` (stereo not drawn) [II-158], the midpoint of inhibition, the IC50, lay at 7200 nM.

The compound `CN1C(C)(C)CC(Nc2nc(Nc3ccc4c(c3)oc(=O)n4C)ncc2F)CC1(C)C` [II-36] returned a concentration for half-maximal inhibition (IC50) of 678 nM.

`CN1C(C)(C)CC(Nc2nc(Nc3nc4ccc([N+](=O)[O-])cc4s3)ncc2F)CC1(C)C` [II-17] returned an IC50 of 845 nM.

On to `CN1C(C)(C)CC(Nc2ccnc(Nc3cccc(C#N)c3)n2)CC1(C)C` [Compound I-227], for which half-maximal inhibition (IC50) was put at 806 nM.

For the compound `CN1C(C)(C)CC(Nc2nc(Nc3nc4ccc(S(C)(=O)=O)cc4s3)ncc2F)CC1(C)C` [II-144], the half-maximal inhibitory concentration (IC50) came to 1080 nM.

Compound `CN1C(C)(C)CC(Nc2nc(Nc3ncc([N+](=O)[O-])s3)ncc2F)CC1(C)C` [II-14] registered a 50% inhibitory concentration (IC50) of 2570 nM.

For `CN1C(C)(C)CC(Nc2nc(Nc3ccc(NCc4ccccc4)cn3)ncc2F)CC1(C)C` [II-85], the IC50 came out at 3660 nM.

`CN1C(=O)C(C)(C)Sc2cc(Nc3ncc(F)c(NC4CC(C)(C)N(C)C(C)(C)C4)n3)ccc21` [II-62] displayed a half-inhibitory concentration (IC50) of 38.3 nM.

As for `CN1C(C)(C)CC(Nc2nc(Nc3ccc4c(c3)C(=O)NC4=O)ncc2F)CC1(C)C` [II-148], the IC50 is 990 nM.

`CN1C(C)(C)CC(Nc2nc(Nc3nc(-c4ccc(Cl)cc4)cs3)ncc2F)CC1(C)C` [II-15] yielded an IC50 of 835 nM.

Still in this experiment, the particulars now being: anti-CD3+CD28 stimulation, 24 hours.
`CSc1nnnn1-c1cccc(Nc2ncc(C#N)c(NC3CC(C)(C)N(C)C(C)(C)C3)n2)c1` [Compound I-464] gave a concentration for half-maximal inhibition (IC50) of 180 nM.

`CN1C(C)(C)CC(Nc2nc(Nc3ccc(N4CCN(S(C)(=O)=O)CC4)c(C(F)(F)F)c3)ncc2F)C1(C)C` (stereo not drawn) [Compound I-286] gave a 50% inhibitory concentration (IC50) of 2420 nM.

As to `CN1C(C)(C)CC(Nc2nc(Nc3cc(OCC(F)(F)F)cc(OCC(F)(F)F)c3)ncc2C(N)=O)CC1(C)C` [Compound I-406], the IC50 is 480 nM.

`CCN1C(=O)C(C)(C)S(=O)(=O)c2cc(Nc3ncc(F)c(NC4CC(C)(C)N(C)C(C)(C)C4)n3)ccc21` [II-66] registered a 50% inhibitory concentration (IC50) of 695 nM.

Regarding `CN1CCN(c2c(F)cc(Nc3ncc(F)c(NC4CC(C)(C)N(C)C(C)(C)C4)n3)cc2F)CC1` [Compound I-40], the 50% inhibitory concentration (IC50) was determined as 461 nM.

Consider `CN1C(C)(C)CC(Nc2nc(Nc3ccc(OC(F)(F)F)c(-c4ccoc4)c3)ncc2F)CC1(C)C` [Compound I-209], for which the half-inhibitory concentration (IC50) is 706 nM.

`COc1ccc(Nc2ncc(F)c(NC3CC(C)(C)N(C)C3(C)C)n2)cc1OC` (stereo not drawn) [Compound I-281, 5-Fluoro-N2-(3,4-dimethoxy)phenyl-N4-(1,2,2,5,5-pentamethylpyrrolidin-3-yl)-2,4-pyrimidinediamine] came in with a 50% inhibitory concentration (IC50) of 17100 nM.

`CN1C(C)(C)CC(Nc2nc(Nc3ccc(N4CCN(S(C)(=O)=O)CC4)c(C(F)(F)F)c3)ncc2C(N)=O)CC1(C)C` [Compound I-90] showed a half-inhibitory concentration (IC50) of 2860 nM.

`Cc1ccc(Nc2ncc(F)c(NC3CC(C)(C)N(C)C(C)(C)C3)n2)cc1-n1cnnn1` [Compound I-398] displayed a concentration for half-maximal inhibition (IC50) of 50 nM.

`CN1CCN(Cc2ccc(Nc3ncc(F)c(NC4CC(C)(C)N(C)C(C)(C)C4)n3)cc2C(F)(F)F)CC1` [Compound I-52] had an IC50 of 133 nM.

For `CN1CCN(c2ccc(Nc3ncc(F)c(NC4CCC(C)(C)N(C)C(C)(C)C4)n3)cc2C(F)(F)F)CC1` (stereo not drawn) [Compound I-270, 5-Fluoro-N2-[4-methylpiperizine-3-trifluoromethyl]phenyl-N4-(1,2,2,7,7-pentamethylazepan-4-yl)-2,4-pyrimidinediamine], 3450 nM corresponded to half-maximal inhibition (IC50).

`CC(C)OC(=O)Nc1ccc(Nc2ncc(F)c(NC3CC(C)(C)N(C)C(C)(C)C3)n2)cc1` [Compound I-137] returned a half-inhibitory concentration (IC50) of 1640 nM.

On to `COC(=O)N1CCN(c2cc(Nc3ncc(F)c(NC4CC(C)(C)N(C)C(C)(C)C4)n3)ccc2C(F)(F)F)CC1` [Compound I-214], for which half-maximal inhibition (IC50) was put at 540 nM.

Compound `CN1CCN(c2ccc(Nc3ncc(C(N)=O)c(NC4CC(C)(C)N(C)C(C)(C)C4)n3)cc2Cl)CC1` [Compound I-98] came in with a concentration for half-maximal inhibition (IC50) of 1070 nM.

In turn, `COc1ccc(Nc2ncc(F)c(NC3CCN(CCO)CC3)n2)cc1Cl` [III-5, N2-(3-Chloro-4-methoxy)phenyl-5-fluoro-N4-[1-(2-hydroxyethyl)piperidin-4-yl]-2,4-pyrimidinediamine] had a half-maximal inhibitory concentration (IC50) of 3260 nM.

`CN1C(C)(C)CC(Nc2nc(Nc3ccc(F)c(-c4cc5ccccc5s4)c3)ncc2F)CC1(C)C` [Compound I-181] came in with an IC50 of 1320 nM.

On to `CN1C(C)(C)CC(Nc2nc(Nc3ccc(N4CCNCC4)c(Cl)c3)ncc2[N+](=O)[O-])CC1(C)C` [Compound I-77], for which 2590 nM corresponded to half-maximal inhibition (IC50).

`CN1CCN(c2ccc(Nc3nccc(NC4CC(C)(C)N(C)C(C)(C)C4)n3)cc2C(F)(F)F)CC1` [Compound I-229] displayed an IC50 of 585 nM.

For the compound `CN1C(C)(C)CC(Nc2nc(Nc3ccc(N4CCOCC4)c(C(F)(F)F)c3)ncc2C(F)(F)F)CC1(C)C` [Compound I-330], the half-inhibitory concentration (IC50) came to 1120 nM.

The compound `CC1(C)CC(Nc2nc(Nc3cc(Cl)cc(Cl)c3)ncc2F)CC(C)(C)N1CCN` [Compound I-447] showed a 50% inhibitory concentration (IC50) of 910 nM.

Turning to `CC(=O)N1CCN(c2cc(Nc3ncc(F)c(NC4CC(C)(C)N(C)C(C)(C)C4)n3)ccc2C(F)(F)F)CC1` [Compound I-212], the IC50 was determined as 445 nM.

In turn, `COc1cc(Nc2ncc(F)c(NC3CC(C)(C)N(C)C3(C)C)n2)cc(OC)c1OC` (stereo not drawn) [Compound I-282, 5-Fluoro-N2-(3,4,5-trimethoxy)phenyl-N4-(1,2,2,5,5-pentamethylpyrrolidin-3-yl)-2,4-pyrimidinediamine] gave a concentration for half-maximal inhibition (IC50) of 15300 nM.

`CN1C(C)(C)CC(Nc2nc(Nc3cccc(C#N)c3)ncc2[N+](=O)[O-])CC1(C)C` [Compound I-72]: 992 nM corresponded to half-maximal inhibition (IC50).

On to `CC(=O)N1C(C)(C)CC(Nc2nc(Nc3ccc(N4CCN(S(C)(=O)=O)CC4)c(C(F)(F)F)c3)ncc2F)CC1(C)C` [Compound I-215], for which half-maximal inhibition (IC50) was put at 25500 nM.

`CC1CN(c2ccc(Nc3ncc(F)c(NC4CC(C)(C)N(C)C(C)(C)C4)n3)cc2C(F)(F)F)CC(C)O1` (stereo not drawn) [Compound I-225] displayed an IC50 of 755 nM.

In turn, `CCCN1C(C)CN(c2cc(Nc3ncc(F)c(NC4CC(C)(C)N(C)C(C)(C)C4)n3)ccc2Cl)CC1C` (stereo not drawn) [Compound I-220] came in with an IC50 of 1050 nM.

Compound `CN1C(C)(C)CC(Nc2nc(Nc3ccc(C(N)=O)cc3)ncc2F)CC1(C)C` [Compound I-23] displayed a concentration for half-maximal inhibition (IC50) of 1680 nM.

As to `COc1cc(C)c(Nc2ncc(F)c(NC3CC(C)(C)NC(C)(C)C3)n2)cc1OC` [Compound I-379], it took 34500 nM to reach half-maximal inhibition (IC50).

Compound `CNC(=O)COc1cccc(Nc2ncc(F)c(NC3CC(C)(C)N(C)C(C)(C)C3)n2)c1` [Compound I-136] gave an IC50 of 1550 nM.

Take `CN1C(C)(C)CC(Nc2nc(Nc3cc(-c4cc5ccccc5s4)cc(C(F)(F)F)c3)ncc2F)CC1(C)C` [Compound I-205]: inhibition was half-maximal at 965 nM (IC50).

With `CN1C(C)(C)CC(Nc2nc(Nc3ccc(N4CCN(S(C)(=O)=O)CC4)c(Cl)c3)ncc2C(N)=O)CC1(C)C` [Compound I-91], the IC50 was 3910 nM.

`CC1(C)CC(Nc2nc(Nc3ccc(N4CCN(S(C)(=O)=O)CC4)c(Cl)c3)ncc2F)CC(C)(C)N1` [Compound I-258] registered a half-inhibitory concentration (IC50) of 399 nM.

Turning to `CN1C(C)(C)CC(Nc2nc(Nc3ccc(N4CCCCC4)c(C(F)(F)F)c3)ncc2F)CC1(C)C` [Compound I-233], the half-inhibitory concentration (IC50) was 1600 nM.

Consider `CN1C(C)(C)CCC(Nc2nc(Nc3cc(Cl)cc(Cl)c3)ncc2F)CC1(C)C` (stereo not drawn) [Compound I-265, 5-Fluoro-N2-[3,5-dichloro]phenyl-N4-(1,2,2,7,7-pentamethylazepan-4-yl)-2,4-pyrimidinediamine], for which the IC50 was 4320 nM.

As to `CC(=O)Nc1ccc(Nc2ncc(F)c(NC3CC(C)(C)N(C)C(C)(C)C3)n2)cc1C(F)(F)F` [Compound I-161], the IC50 was found to be 1050 nM.

For the compound `CN(c1nc(Nc2cccc(C#N)c2)ncc1F)C1CC(C)(C)N(C)C(C)(C)C1` [Compound I-66], inhibition was half-maximal at 1460 nM (IC50).

The compound `Cc1nnnn1-c1cccc(Nc2ncc(F)c(NC3CC(C)(C)NC(C)(C)C3)n2)c1` [Compound I-414] registered a half-maximal inhibitory concentration (IC50) of 160 nM.

Regarding `CN1C(C)(C)CC(Nc2nc(Nc3ccc(N4CCN(S(C)(=O)=O)CC4)c(C(F)(F)F)c3)ncc2C(F)(F)F)CC1(C)C` [Compound I-88], 287 nM corresponded to half-maximal inhibition (IC50).

As to `CN1C(C)(C)CC(Nc2nc(Nc3ccc(N4CCN(S(C)(=O)=O)CC4)c(C#N)c3)ncc2C(F)(F)F)CC1(C)C` [Compound I-176], the IC50 worked out at 655 nM.

`COc1ccc(Nc2ncc(F)c(NC3CC(C)(C)N(C)C(C)(C)C3)n2)cc1-c1ccoc1` [Compound I-183] showed a concentration for half-maximal inhibition (IC50) of 901 nM.

`COC(=O)N1CCN(c2ccc(Nc3ncc(F)c(NC4CC(C)(C)N(C)C(C)(C)C4)n3)cc2C(F)(F)F)CC1` [Compound I-47] returned a half-inhibitory concentration (IC50) of 136 nM.

`CN1CCN(c2ccc(Nc3ncc(Cl)c(NC4CC(C)(C)N(C)C(C)(C)C4)n3)cc2Cl)CC1` [Compound I-36]: 83 nM corresponded to half-maximal inhibition (IC50).

In turn, `CN1C(C)(C)CC(Nc2nc(Nc3cc(C(F)(F)F)c(Br)c(C(F)(F)F)c3)ncc2F)CC1(C)C` [Compound I-117] registered an IC50 of 1250 nM.
